Patent publication US9073903B2, “Imidazole-2,4-dione inhibitors of casein kinase 1” (Jasco Pharmaceuticals, LLC, priority 2010, dated 2015)
Read-outs that look alike come from different tables or passages of the source.

Tests used:
Type in all cases: cell-based
PC-3 cells = assay: Inhibition of PC-3 cells (MTS cell proliferation); details: for OD value 1 / OD value 2: 490 nm; for OD value 1 / OD value 2 / inhibition at 0.4 µM / inhibition at 0.8 µM / inhibition at 1.6 µM / inhibition at 3.2 µM / inhibition at 6.25 µM / inhibition at 12.5 µM / inhibition at 25 µM / inhibition at 50 µM / inhibition at 100 µM: 72 h; for inhibition at 0.4 µM / inhibition at 0.8 µM / inhibition at 1.6 µM / inhibition at 3.2 µM / inhibition at 6.25 µM / inhibition at 12.5 µM / inhibition at 25 µM / inhibition at 50 µM / inhibition at 100 µM / IC50: Homo sapiens, PC-3
Method: Inhibition of PC-3 Cells: Cells: PC-3 cells, ATCC Passage unknown, Mycoplasma free. Medium: DMEM Medium (GIBCO Cat #11995073) supplemented with 10% fetal bovine serum (Hyclone Cat #SH30396.03). Seeding: 3,000 cells/well (100 ul) into 96-wells plate, incubated overnight at 37° C. in a humidified, 5% CO2 atmosphere. Treatment: Test compounds and Gemcitabine were prepared in a serial dilution (1:2) by culture medium. Fifty microliters (50 uL) of serially diluted solutions were added into each well. The final concentrations of the positive control and test compounds were shown in the graphs. The cells were incubated for 72 hours after addition of the test compounds. MTS: 15 uL of MTS solution (Promega Cat #G5430) was added into each well and incubated with cells for 4 hours at 37° C. in a humidified, 5% CO2 atmosphere. Measurement: Absorbance at 490 nm was measured using MD Spectramax Plus384 spectrophotometer. The regression curves were calculated by the GraphPad Prism 5 using “log(inhibitor) vs response—variable slope”. Calculation: % of inhibition=(ODzero ctrl−OD compound)/ODzero ctrl*100.

Ovcar-3 cells = assay: Inhibition of Ovcar 3 cells (MTS cell proliferation); details: for OD value 1 / OD value 2: 490 nm; for OD value 1 / OD value 2 / inhibition at 0.4 µM / inhibition at 0.8 µM / inhibition at 1.6 µM / inhibition at 3.2 µM / inhibition at 6.25 µM / inhibition at 12.5 µM / inhibition at 25 µM / inhibition at 50 µM / inhibition at 100 µM: 72 h; for inhibition at 0.4 µM / inhibition at 0.8 µM / inhibition at 1.6 µM / inhibition at 3.2 µM / inhibition at 6.25 µM / inhibition at 12.5 µM / inhibition at 25 µM / inhibition at 50 µM / inhibition at 100 µM / IC50: Homo sapiens, OVCAR-3
Method: Inhibition of Ovcar 3 Cells Cells: Ovcar-3 cells, ATCC Passage 4, Mycoplasma free. Medium: RPMI-1640 Medium (GIBCO Cat #22400121) supplemented with 10% fetal bovine serum (Hyclone Cat #SH30396.03). Seeding: 3,000 cells/well (100 uL) were seeded into 96-wells plate, incubated overnight at 37° C. in a humidified, 5% CO2 atmosphere. Treatment: Test compounds and Gemcitabine were prepared in a serial dilution (1:2) by culture medium. Fifty microliters (50 uL) of serially diluted solutions were added into each well. The final concentrations of the positive control and test compounds were shown in the graphs. The cells were incubated for 72 hours after addition of the test compounds. MTS: 15 uL of MTS solution (Promega Cat #G5430) was added into each well and incubated with cells for 4 hours at 37° C. in a humidified, 5% CO2 atmosphere. Measurement: Absorbance at 490 nm was measured using MD Spectramax Plus384 spectrophotometer. The regression curves were calculated by the GraphPad Prism 5 using “log(inhibitor) vs response—variable slope”.

Jurkat = assay: Cell proliferation study Jurkat

## Nc1ccn([C@@H]2O[C@H](CO)[C@@H](O)C2(F)F)c(=O)n1 [Gemcitabine]
PC-3 cells; 0.400 uM, replicate 1
  OD value 1: 0.884
PC-3 cells; 0.400 uM, replicate 2
  OD value 2: 0.866
PC-3 cells; 0.800 uM, replicate 1
  OD value 1: 0.860
PC-3 cells; 0.800 uM, replicate 2
  OD value 2: 0.803
PC-3 cells; 1.600 uM, replicate 1
  OD value 1: 0.794
PC-3 cells; 1.600 uM, replicate 2
  OD value 2: 0.778
PC-3 cells; 3.200 uM, replicate 1
  OD value 1: 0.726
PC-3 cells; 3.200 uM, replicate 2
  OD value 2: 0.756
PC-3 cells; 6.250 uM, replicate 1
  OD value 1: 0.686
PC-3 cells; 6.250 uM, replicate 2
  OD value 2: 0.692
PC-3 cells; 12.500 uM, replicate 1
  OD value 1: 0.617
PC-3 cells; 12.500 uM, replicate 2
  OD value 2: 0.628
PC-3 cells; 25.000 uM, replicate 1
  OD value 1: 0.572
PC-3 cells; 25.000 uM, replicate 2
  OD value 2: 0.583
PC-3 cells; 50.000 uM, replicate 1
  OD value 1: 0.458
PC-3 cells; 50.000 uM, replicate 2
  OD value 2: 0.488
PC-3 cells; 100.000 uM, replicate 1
  OD value 1: 0.246
PC-3 cells; 100.000 uM, replicate 2
  OD value 2: 0.214
PC-3 cells; 0.400 uM, replicate 1, read-out: % of inhibition 1
  inhibition at 0.4 µM: 2.1%
PC-3 cells; 0.400 uM, replicate 2, read-out: % of inhibition 2
  inhibition at 0.4 µM: 1.92%
PC-3 cells; 0.800 uM, replicate 1, read-out: % of inhibition 1
  inhibition at 0.8 µM: 4.8%
PC-3 cells; 0.800 uM, replicate 2, read-out: % of inhibition 2
  inhibition at 0.8 µM: 9.05%
PC-3 cells; 1.600 uM, replicate 1, read-out: % of inhibition 1
  inhibition at 1.6 µM: 12%
PC-3 cells; 1.600 uM, replicate 2, read-out: % of inhibition 2
  inhibition at 1.6 µM: 11.9%
PC-3 cells; 3.200 uM, replicate 1, read-out: % of inhibition 1
  inhibition at 3.2 µM: 19.7%
PC-3 cells; 3.200 uM, replicate 2, read-out: % of inhibition 2
  inhibition at 3.2 µM: 14.3%
PC-3 cells; 6.250 uM, replicate 1, read-out: % of inhibition 1
  inhibition at 6.25 µM: 24.1%
PC-3 cells; 6.250 uM, replicate 2, read-out: % of inhibition 2
  inhibition at 6.25 µM: 21.7%
PC-3 cells; 12.500 uM, replicate 1, read-out: % of inhibition 1
  inhibition at 12.5 µM: 31.7%
PC-3 cells; 12.500 uM, replicate 2, read-out: % of inhibition 2
  inhibition at 12.5 µM: 28.9%
PC-3 cells; 25.000 uM, replicate 1, read-out: % of inhibition 1
  inhibition at 25 µM: 36.7%
PC-3 cells; 25.000 uM, replicate 2, read-out: % of inhibition 2
  inhibition at 25 µM: 34%
PC-3 cells; 50.000 uM, replicate 1, read-out: % of inhibition 1
  inhibition at 50 µM: 49.3%
PC-3 cells; 50.000 uM, replicate 2, read-out: % of inhibition 2
  inhibition at 50 µM: 44.5%
PC-3 cells; 100.000 uM, replicate 1, read-out: % of inhibition 1
  inhibition at 100 µM: 72.8%
PC-3 cells; 100.000 uM, replicate 2, read-out: % of inhibition 2
  inhibition at 100 µM: 75.8%
PC-3 cells; Table 18, read-out: PC-3* 50% inhibition concentration
  IC50: 41.3 µM
PC-3 cells; Table 26, 72 hours, read-out: 50% viability conc.
  IC50: 41.3 µM
Ovcar-3 cells; 0.400 μM, replicate 1
  OD value 1: 0.591
Ovcar-3 cells; 0.400 μM, replicate 2
  OD value 2: 0.575
Ovcar-3 cells; 0.800 μM, replicate 1
  OD value 1: 0.490
Ovcar-3 cells; 0.800 μM, replicate 2
  OD value 2: 0.460
Ovcar-3 cells; 1.600 μM, replicate 1
  OD value 1: 0.440
Ovcar-3 cells; 1.600 μM, replicate 2
  OD value 2: 0.453
Ovcar-3 cells; 3.200 μM, replicate 1
  OD value 1: 0.411
Ovcar-3 cells; 3.200 μM, replicate 2
  OD value 2: 0.432
Ovcar-3 cells; 6.250 μM, replicate 1
  OD value 1: 0.363
Ovcar-3 cells; 6.250 μM, replicate 2
  OD value 2: 0.388
Ovcar-3 cells; 12.500 μM, replicate 1
  OD value 1: 0.257
Ovcar-3 cells; 12.500 μM, replicate 2
  OD value 2: 0.234
Ovcar-3 cells; 25.000 μM, replicate 1
  OD value 1: 0.040
Ovcar-3 cells; 25.000 μM, replicate 2
  OD value 2: 0.009
Ovcar-3 cells; 50.000 μM, replicate 1
  OD value 1: 0.020
Ovcar-3 cells; 50.000 μM, replicate 2
  OD value 2: 0.010
Ovcar-3 cells; 100.000 μM, replicate 1
  OD value 1: 0.012
Ovcar-3 cells; 100.000 μM, replicate 2
  OD value 2: 0.011
Ovcar-3 cells; 0.400 μM, replicate 1, read-out: % of inhibition 1
  inhibition at 0.4 µM: 1.5%
Ovcar-3 cells; 0.400 μM, replicate 2, read-out: % of inhibition 2
  inhibition at 0.4 µM: -4.93%
Ovcar-3 cells; 0.800 μM, replicate 1, read-out: % of inhibition 1
  inhibition at 0.8 µM: 18.3%
Ovcar-3 cells; 0.800 μM, replicate 2, read-out: % of inhibition 2
  inhibition at 0.8 µM: 16.1%
Ovcar-3 cells; 1.600 μM, replicate 1, read-out: % of inhibition 1
  inhibition at 1.6 µM: 26.6%
Ovcar-3 cells; 1.600 μM, replicate 2, read-out: % of inhibition 2
  inhibition at 1.6 µM: 17.4%
Ovcar-3 cells; 3.200 μM, replicate 1, read-out: % of inhibition 1
  inhibition at 3.2 µM: 31.5%
Ovcar-3 cells; 3.200 μM, replicate 2, read-out: % of inhibition 2
  inhibition at 3.2 µM: 21.2%
Ovcar-3 cells; 6.250 μM, replicate 1, read-out: % of inhibition 1
  inhibition at 6.25 µM: 39.5%
Ovcar-3 cells; 6.250 μM, replicate 2, read-out: % of inhibition 2
  inhibition at 6.25 µM: 29.2%
Ovcar-3 cells; 12.500 μM, replicate 1, read-out: % of inhibition 1
  inhibition at 12.5 µM: 57.2%
Ovcar-3 cells; 12.500 μM, replicate 2, read-out: % of inhibition 2
  inhibition at 12.5 µM: 57.3%
Ovcar-3 cells; 25.000 μM, replicate 1, read-out: % of inhibition 1
  inhibition at 25 µM: 93.4%
Ovcar-3 cells; 25.000 μM, replicate 2, read-out: % of inhibition 2
  inhibition at 25 µM: 98.4%
Ovcar-3 cells; 50.000 μM, replicate 1, read-out: % of inhibition 1
  inhibition at 50 µM: 96.7%
Ovcar-3 cells; 50.000 μM, replicate 2, read-out: % of inhibition 2
  inhibition at 50 µM: 98.1%
Ovcar-3 cells; 100.000 μM, replicate 1, read-out: % of inhibition 1
  inhibition at 100 µM: 98%
Ovcar-3 cells; 100.000 μM, replicate 2, read-out: % of inhibition 2
  inhibition at 100 µM: 98%
Ovcar-3 cells; Table 18, read-out: OVCAR-3* 50% inhibition concentration
  IC50: 11.2 µM
Ovcar-3 cells; Table 26, Ovcar3, 72 hours, read-out: 50% viability conc.
  IC50: 11.2 µM
Ovcar-3 cells; Table 26, Ovcar3, 72 hours, read-out: IC50
  IC50: 9.87 µM
Ovcar-3 cells; Table 26, Ovcar3, 72 hours
  Maximal inhibition %: 98%
Jurkat
  Jurkat‡ % at 10 μM: 3.2%
